Each structure is given as a SMILES string.

Results on two compounds are retold here after patent US20230390315A1, “COMPOSITIONS AND METHODS FOR TREATING ISCHEMIC CONDITIONS” (The Regents of the University of California, priority 2020, published 2023).

Data set [1] has as its system bovine choroidal microvascular endothelial cells (BCEC). The data set is described as follows: BCEC proliferation assay. In kind it is cell-based. The protocol: Proliferation assays with BCECs and BRECs were performed. Log-phase growing BCECs or BRECs (passage <10) were trypsinized, re-suspended and seeded in 96-well plates (no coating) in low-glucose DMEM supplemented with 10% bovine calf serum, 2 mM glutamine, and antibiotics (growth medium), at a density of 1200-1500 cells per well in 200 μl volume. All reagents were added at the indicated final concentrations. […] Fluorescence was measured at 530 nm excitation wavelength and 590 nm emission wavelength. The experiments were repeated at least three times. […] On each 96-well plate, untreated and VEGF-treated (10/ng/ml) wells were included to monitor plate-to-plate variations. 20% methanol or 0.05% DMSO served as negative controls. 0.05% DMSO served as negative controls when Cas was tested in these cells. Human […] and human adult […] were split into Gelatin-coated 96 wells (2000 cells per well) in low glucose DMEM containing 10% FBS. 1200 cells/well was set up for proliferation assay in low glucose media containing FBS. […] HUVEC (p7-10) were grown on gelatin-coated plate until it reached 70-80% confluency. On the day of the assay, cells were dissociated with 0.05% trypsin, which was neutralized with 0.5% FBS-containing EBM. Cells were briefly spun and then re-suspended in 0.5% FBS-media. Cells were counted and plated in 96-well, 1000 cells/well. Triplicate wells were used for each treatment. Data were collected at day 3, and then cells were fixed in 4% paraformaldehyde for 15 min before adding crystal violet. Cell-covered areas were quantified after taking pictures by Image J software.

Data set [2] concerns ERK, AKT, mTOR, CREB, ACC and eNOS. The data set is described as follows: Western blot of signal transduction pathways in BCECs. It is filed as cell-based, bovine. The protocol: (§1) Cells were allowed to reach ˜80% confluency in 12-well plates. […] At various time points, plates were taken out of the incubator and kept on ice. Cell monolayers were first washed once with ice-cold PBS before lysis with 250 μl of Pierce RIPA buffer (ThermoFisher Scientific, Rockford, IL) or use 50 mM Tris-HCl (pH 7.6), 150 mM NaCl, 10% Glycerol, 1% NP-40 containing protease/Phosphatase inhibitor cocktail (100×) (Cell signaling, #5872). Lysates were collected and mixed with 4×Bolt LDS Sample Buffer (Novex, Carlsbad, CA) in the presence of Halt protease inhibitors and phosphatase inhibitor cocktail (ThermoFisher scientific, #NP0007). The samples were subjected to SDS-PAGE (Bolt 4-12% Bis-Tris Plus, Invitrogen) using Bolt MES SDS running buffer or NuPAGE 3-8% Tris-Acetate gel using Tris-Acetate SDS running buffer (Novex). HUVECs (passage 6-8) were plated in EBM-2 basal medium (Lonza) with 0.2% FBS. […] Equal amounts of protein lysates were analyzed by SDS-PAGE and blotted with the indicated antibodies. Proteins were transferred using Tris-Glycine buffer with 20% Methanol (Proteonomics grade) (Apex BioResearch Products). Membranes were first incubated with 5% milk in TBST, pH 7.6 (TEKnova, Hollister, CA), followed by blotting with primary and secondary antibodies. ECL anti-rabbit IgG, horseradish peroxidase linked whole antibody from donkey or sheep anti-mouse were obtained from GE Healthcare (UK limited). SuperSignal West Dura Extended Duration substrate was from ThermoFisher Scientific. In some cases, the same PVDF membranes were stripped by 8-min incubation in the Restore Plus Western Blot Stripping Buffer (ThermoFisher Scientific) to show total specific protein expression, followed by second stripping for β-actin expression.

Data set [3] deals with JNK/c-Jun. The data set is described as follows: Western blot of JNK pathway activation in BCECs. In kind it is cell-based, bovine. Particulars: media without growth factors. The protocol: as §1, with “80%” for “˜80%”
In data set [4] the test system is VEGFR2. The data set is described as follows: Western blot of VEGFR2 molecular mass in BCECs and BRECs. It is filed as cell-based, bovine. The protocol:
Glycerol-free PNGase F was obtained from New England Biolabs (Ipswich, MA). Briefly, BCECs were lysed with NP-40 containing proteinase inhibitors (Thermo Scientific, Waltham, MA). Lysates were cleared at 4° C. at 5000 g for 25 mins. Total protein content was measured using Pierce BCA protein assay kit (ThermoScientific). […] of protein was mixed with 10× denaturing buffer and H2O to a total volume of […]. Glycoproteins were denatured at 100° C. for 10 mins, followed by adding Glycobuffer and PNGase F. The reaction was carried out at 37° C. for 2 hr.
as §1

As to `O=C1N[C@@H]2[C@@H](O)[C@@H](O)[C@H](O)[C@@H](CO)N2C1=O` [Kif, Kifunensine, reference compound], the “BCEC proliferation with N-glycosylation inhibitors” value in data set [1] (absence or presence of 5 ng/ml VEGF) is given as “stimulated in a dose-dependent fashion”. Moreover, the “activation of ERK and AKT” value in data set [2] (40 uM, BCECs) is on record as “significantly activate”. Moreover, the “activation of JNK pathway (JNK and downstream c-Jun)” value in data set [3] is given as “able to activate the JNK pathway”. Moreover, the “VEGFR2 molecular mass after glycosylation inhibitor treatment” value in data set [4] (24 hours, SDS-PAGE) is “reduction in VEGFR2 molecular mass”.

In the case of `N[C@H](C=O)[C@@H](O)[C@H](O)[C@H](O)CO` [ManN, 2-Amino-2-deoxy-D-mannose], in data set [1], the “dose range with significant stimulatory effects” value is 5 to 500 µM. Further, the “additivity with VEGF in promoting BCEC proliferation” value in data set [1] (5 ng/ml VEGF) is recorded as “additive with VEGF”. Further, in data set [1] (20 ng/ml bFGF), the “additivity with bFGF in promoting BCEC proliferation” value is listed as “Additive effects”. For the same compound, the “fold increase in fluorescence units upon AlamarBlue addition” value in data set [1] (50 uM ManN and 5 ng/ml VEGF, compared to VEGF alone) is 2.5-3 fold. Moreover, the “maximal fold increase in EC-covered surface” value in data set [1] (ManN at 50 uM alone, crystal violet, FIG. 1A) is reported as approximately 6.5 fold. In data set [1] (experiments with VEGFR2 inhibitor axitinib), the “dependence of VEGFR2 mass decrease and BCEC proliferation stimulation on VEGFR2 signaling” value was “not dependent on VEGFR2 signaling”. Further, the “additivity between ManN and VEGF in glucose-free media” value in data set [1] (glucose-free media) is “abolished”. For the same compound, the “concentration with significant cytotoxicity” value in data set [1] (glucose-free media, even in the presence of VEGF) was 4 µM. Also, the “dose-response of effects on BCEC proliferation” value in data set [1] (with or without VEGF) is on record as “bell-shaped dose-response curve, with inhibition at higher concentrations”. Also, in data set [2], the “activation of ERK, AKT and CREB with both ManN and VEGF compared to ManN or VEGF alone” value was “enhancement in activation”. In data set [2] (40 uM), the “activation of ERK, AKT, mTOR and CREB” value is listed as “activated”; the “activation of eNOS and ACC” value is given as “significantly activated”; the “time to activation of eNOS and ACC” value was in the range of 10 to 30 min; the “time to stimulation of ERK, AKT and CREB after adding ManN” value lay within 10 to 30 min. In addition, the “activation of JNK pathway (JNK and downstream c-Jun)” value in data set [3] is listed as “significantly activated”. In addition, the “duration of ManN effects on protein mass in the absence of exogenous ManN” value in data set [4] (BCECs) is reported as “at least 8 hours”. Besides, in data set [4] (BCECs and BRECs), the “concentration at which VEGFR2 molecular mass shift starts” value was found to be 40 µM and the “effect on apparent molecular mass of VEGFR2” value is recorded as “shifted significantly”. The “new lower molecular weight VEGFR2 bands” value in data set [4] (BCECs, control major band ~230 KDa, minor ~210 KDa) is reported as 170-200 KDa. Also, the “extent of loss of VEGFR2 glycosylation (PNGase F treatment)” value in data set [4] (ManN at uM concentrations) is listed as “not all the glycosylation on VEGFR2 was abolished”. For the same compound, the “reversibility of effects on VEGFR2 molecular mass after ManN removal” value in data set [4] (after 24 hours) is “completely reverse”.
